The values that follow come from PMC5249140, “Delineating Substrate Diversity of Disparate Short-Chain Dehydrogenase Reductase from Debaryomyces hansenii” (PLoS ONE, 2017).

The target of series [1] is T1, DHK (SDR from Debaryomyces hansenii) (Debaryomyces hansenii, UniProt Q6BTD7).
T1 construct: gene DEHA2D01496g; full-length codon-optimised synthetic gene in pET28a, N-terminal His6 tag kept, E. coli BL21(DE3), ~39 kDa, monomer
Nature of the series: differential scanning fluorimetry, SYPRO orange. The class given is binding. As to conditions: 50 μM ligand, 2.5 μM enzyme; apo Tm 28.04°C.

The target of series [2] is T2, FabG (β-keto ACP reductase) (Synechococcus elongatus, UniProt Q31QF3).
T2 construct: gene Synpcc7942_0684; codon-optimised synthetic gene in pET28a, N-terminal His6 tag, E. coli BL21(DE3), ~29 kDa
Nature of the series: differential scanning fluorimetry, SYPRO orange. The series is classed as binding. As to conditions: 2.5 μM enzyme; apo Tm 58°C, with NADPH 65°C. On the technique in general: In DSF a fluorescence change marks the thermal transition of the protein.

Substrate in series [3]: CCOC(=O)CC(=O)CCl
Briefly: purified protein. As to conditions: 300 μM NADPH, 100 mM sodium phosphate, 100 mM NaCl, pH 7.4, 25°C. The series is classed as biochemical, Debaryomyces hansenii.

Substrate in series [4]: NC(=O)C1=CN([C@@H]2O[C@H](COP(=O)(O)OP(=O)(O)OC[C@H]3O[C@@H](n4cnc5c(N)ncnc54)[C@H](OP(=O)(O)O)[C@@H]3O)[C@@H](O)[C@H]2O)C=CC1
Nature of the series: purified protein. The class given is biochemical, Debaryomyces hansenii. As to conditions: 2 mM ethyl 4-chloro acetoacetate, 100 mM sodium phosphate, 100 mM NaCl, pH 7.4, 25°C, varied: cofactor.

T2 sequence (Q31QF3 entry or part of it): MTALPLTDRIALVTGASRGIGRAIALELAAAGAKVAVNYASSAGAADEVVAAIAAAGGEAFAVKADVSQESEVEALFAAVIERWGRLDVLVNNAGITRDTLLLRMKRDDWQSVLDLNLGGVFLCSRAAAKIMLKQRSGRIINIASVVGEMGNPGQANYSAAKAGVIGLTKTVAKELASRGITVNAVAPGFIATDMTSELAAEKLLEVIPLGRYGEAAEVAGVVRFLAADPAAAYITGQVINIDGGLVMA

For `NC(=O)C1=CN([C@@H]2O[C@H](COP(=O)(O)OP(=O)(O)OC[C@H]3O[C@@H](n4cnc5c(N)ncnc54)[C@H](O)[C@@H]3O)[C@@H](O)[C@H]2O)C=CC1` [NADH], in series [1], the ΔTm (as a rule, the change in melting temperature against a reference sample) was determined as 1.82 °C.

On to `NC(=O)C1=CN([C@@H]2O[C@H](COP(=O)(O)OP(=O)(O)OC[C@H]3O[C@@H](n4cnc5c(N)ncnc54)[C@H](OP(=O)(O)O)[C@@H]3O)[C@@H](O)[C@H]2O)C=CC1` [NADPH], for which the ΔTm in series [1] amounted to 6.05 °C. The Tm shift in series [2] stood at 7 °C.

B1: DHK (SDR from Debaryomyces hansenii) (Debaryomyces hansenii CBS767) (protein)
chain: MTRTVFVSGASGFIAQNIVKLLIEKGYNVIGTVRTAEKGENLKKCLASEKFTYEIVPDISVEGAFDKVLEKHSEINVLLHTASPFFYDTTDPENDLVLPAINGTKNILKAVKQYGAQIERVVITSSDAAIYSADDEQNSDLSFNESNWNSISYEDAIKDPIAAYYGAKTFAEKAAWDFVKENNSNFKLTAVNPVYVFGPQAFASEVKGKLNTSNELINTLIKLGPSDLFDNDKGGFIDVRDVAKAHVMAFESEDTINKRLYLTNGHFSTQMMLDIVNKNFPELKGKIPIGNPGTGSQDISTLAKMSNDATRQILNFDFNSLEKVVADTVAQILDARKRTL
notes: full-length codon-optimised synthetic gene in pET28a, N-terminal His6 tag kept, E. coli BL21(DE3), ~39 kDa, monomer
As for B1, the Km (as a rule, the concentration of substrate that gives half-maximal velocity) in series [3] is 616.1 µM; in series [4], 51.09 µM.
